Measured values taken from article PMC8157031, “Identification of Binding Regions of Bilirubin in the Ligand-Binding Pocket of the Peroxisome Proliferator-Activated Receptor-A (PPARalpha)” (Molecules, 2021).
Where a chain is given by its changes, count along the chain named.

What was measured:
PPARα [1] = biological target: T1, PPARα (Mus musculus, UniProt P23204, A333G); assay: bilirubin autofluorescence with purified mutant; binding reduced by […]
T1 construct: gene Ppara; full-length histidine-tagged mouse PPARα
T1 sequence (P23204 1-468 A333G): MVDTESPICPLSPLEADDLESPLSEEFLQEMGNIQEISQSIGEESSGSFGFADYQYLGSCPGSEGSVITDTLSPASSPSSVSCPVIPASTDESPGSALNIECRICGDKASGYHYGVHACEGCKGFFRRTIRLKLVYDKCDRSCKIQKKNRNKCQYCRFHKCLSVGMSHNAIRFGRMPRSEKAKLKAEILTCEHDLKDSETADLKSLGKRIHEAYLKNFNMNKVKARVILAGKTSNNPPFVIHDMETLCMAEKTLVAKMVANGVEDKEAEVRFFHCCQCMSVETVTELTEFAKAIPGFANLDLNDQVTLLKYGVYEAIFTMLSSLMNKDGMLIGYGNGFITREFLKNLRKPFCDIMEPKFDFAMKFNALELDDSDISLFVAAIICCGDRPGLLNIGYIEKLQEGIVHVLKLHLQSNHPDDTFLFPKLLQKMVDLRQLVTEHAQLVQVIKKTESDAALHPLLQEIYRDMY

[2] = biological target: T2, bovine serum albumin (BSA) (Bos taurus, UniProt P02769); assay: bilirubin autofluorescence titration (excitation […] nm); type: binding
T2 construct: gene ALB
T2 sequence (P02769 25-607): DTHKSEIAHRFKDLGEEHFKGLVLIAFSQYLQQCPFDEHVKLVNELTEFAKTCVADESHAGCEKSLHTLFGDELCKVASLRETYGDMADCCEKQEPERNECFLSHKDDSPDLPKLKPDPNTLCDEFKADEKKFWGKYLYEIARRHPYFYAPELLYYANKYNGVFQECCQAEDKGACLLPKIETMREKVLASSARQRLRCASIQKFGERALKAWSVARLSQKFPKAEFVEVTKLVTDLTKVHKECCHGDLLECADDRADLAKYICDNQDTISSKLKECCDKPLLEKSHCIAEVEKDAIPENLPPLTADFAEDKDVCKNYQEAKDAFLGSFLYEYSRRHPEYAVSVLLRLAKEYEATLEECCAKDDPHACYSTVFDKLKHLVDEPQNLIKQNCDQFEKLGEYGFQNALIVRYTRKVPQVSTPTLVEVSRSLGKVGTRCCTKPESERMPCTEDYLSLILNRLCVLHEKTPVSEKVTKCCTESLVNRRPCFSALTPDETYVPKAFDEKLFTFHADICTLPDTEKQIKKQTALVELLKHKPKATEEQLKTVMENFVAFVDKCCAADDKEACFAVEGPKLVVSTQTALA

PPARα [3] = biological target: T3, PPARα (Mus musculus, UniProt P23204); assay: bilirubin autofluorescence titration with purified His-PPARα; type: binding
T3 construct: gene Ppara; full-length histidine-tagged mouse PPARα
T3 sequence (P23204 1-468): T1 sequence (P23204 1-468 A333G) with G333A

PPARα [4] = biological target: T4, PPARα (Mus musculus, UniProt P23204, T283G); assay: bilirubin autofluorescence with purified mutant; binding reduced by […]
T4 construct: gene Ppara; full-length histidine-tagged mouse PPARα
T4 sequence (P23204 1-468 T283G): T1 sequence (P23204 1-468 A333G) with T283G, G333A

[5] = biological target: T2, bovine serum albumin (BSA); assay: biliverdin autofluorescence dose-response (excitation […] nm); type: binding

Row | Compound | % reduction of binding (PPARα [1]) | Kd [2] | Kd (PPARα [3]) | % reduction of binding (PPARα [4]) | biliverdin autofluorescence dose-response (excitation 440 nm) [5]
1 | C=CC1=C(C)/C(=C/c2[nH]c(Cc3[nH]c(/C=C4\NC(=O)C(C)=C4C=C)c(C)c3CCC(=O)O)c(CCC(=O)O)c2C)NC1=O [BR, bilirubin] | 17.0 % reduction of binding | 11.1 µM | 5.13 µM | 11.4 % reduction of binding | –
2 | C=CC1=C(C)/C(=C/C2=NC(=C\c3[nH]c(/C=C4\NC(=O)C(C)=C4C=C)c(C)c3CCC(=O)O)/C(CCC(=O)O)=C2C)NC1=O [BV, biliverdin] | – | – | – | – | The results in Figure 1C show a dose-dependent increase in fluorescence for biliverdin bound to albumin
